# Measurements as given in article PMC4794757 (Bioorganic & medicinal chemistry letters, 2016).
# Experiments:
# hmGlu1 = hmGlu1 (Homo sapiens, UniProt Q13255); assay: Calcium mobilization mGlu1 assay; type: cell-based; settings: for mGlu1 pEC50 (±SEM) / hmGlu1 EC50: calcium mobilization; for mGlu1 pEC50 (±SEM): n=3; for hmGlu1 EC50: average of n=3 in triplicate
# hmGlu4 = hmGlu4 (Homo sapiens, UniProt Q14833); assay: mGlu4 counter-screen; type: cell-based; settings: selectivity mGlu1 versus mGlu4
# Rat iv PK = type: in vivo; settings: rat iv clearance versus rat microsomal prediction
# hmGlu4, sequence (Q14833 33-912): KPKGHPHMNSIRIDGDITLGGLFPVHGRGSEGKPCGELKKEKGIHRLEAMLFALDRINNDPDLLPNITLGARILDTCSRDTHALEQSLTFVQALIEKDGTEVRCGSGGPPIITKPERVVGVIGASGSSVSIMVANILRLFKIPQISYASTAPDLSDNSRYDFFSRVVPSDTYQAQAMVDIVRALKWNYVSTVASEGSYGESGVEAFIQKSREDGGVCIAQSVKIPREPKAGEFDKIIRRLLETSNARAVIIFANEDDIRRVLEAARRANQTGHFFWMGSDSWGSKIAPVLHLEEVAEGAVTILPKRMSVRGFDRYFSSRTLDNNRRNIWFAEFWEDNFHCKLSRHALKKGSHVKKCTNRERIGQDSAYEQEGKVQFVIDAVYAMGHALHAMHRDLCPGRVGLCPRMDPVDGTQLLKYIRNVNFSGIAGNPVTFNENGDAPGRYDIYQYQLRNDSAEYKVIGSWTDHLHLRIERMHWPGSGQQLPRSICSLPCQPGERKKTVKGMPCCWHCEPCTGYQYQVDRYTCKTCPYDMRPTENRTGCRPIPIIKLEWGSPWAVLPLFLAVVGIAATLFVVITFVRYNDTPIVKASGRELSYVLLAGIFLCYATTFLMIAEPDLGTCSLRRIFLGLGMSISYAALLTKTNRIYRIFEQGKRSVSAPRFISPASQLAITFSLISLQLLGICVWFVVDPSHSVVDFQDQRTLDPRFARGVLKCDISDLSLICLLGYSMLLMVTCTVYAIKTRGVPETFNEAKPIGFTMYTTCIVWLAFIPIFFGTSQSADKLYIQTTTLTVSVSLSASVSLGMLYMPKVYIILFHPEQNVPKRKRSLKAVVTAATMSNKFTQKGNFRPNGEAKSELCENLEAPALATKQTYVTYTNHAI
# hmGlu1, sequence (Q13255 19-1194): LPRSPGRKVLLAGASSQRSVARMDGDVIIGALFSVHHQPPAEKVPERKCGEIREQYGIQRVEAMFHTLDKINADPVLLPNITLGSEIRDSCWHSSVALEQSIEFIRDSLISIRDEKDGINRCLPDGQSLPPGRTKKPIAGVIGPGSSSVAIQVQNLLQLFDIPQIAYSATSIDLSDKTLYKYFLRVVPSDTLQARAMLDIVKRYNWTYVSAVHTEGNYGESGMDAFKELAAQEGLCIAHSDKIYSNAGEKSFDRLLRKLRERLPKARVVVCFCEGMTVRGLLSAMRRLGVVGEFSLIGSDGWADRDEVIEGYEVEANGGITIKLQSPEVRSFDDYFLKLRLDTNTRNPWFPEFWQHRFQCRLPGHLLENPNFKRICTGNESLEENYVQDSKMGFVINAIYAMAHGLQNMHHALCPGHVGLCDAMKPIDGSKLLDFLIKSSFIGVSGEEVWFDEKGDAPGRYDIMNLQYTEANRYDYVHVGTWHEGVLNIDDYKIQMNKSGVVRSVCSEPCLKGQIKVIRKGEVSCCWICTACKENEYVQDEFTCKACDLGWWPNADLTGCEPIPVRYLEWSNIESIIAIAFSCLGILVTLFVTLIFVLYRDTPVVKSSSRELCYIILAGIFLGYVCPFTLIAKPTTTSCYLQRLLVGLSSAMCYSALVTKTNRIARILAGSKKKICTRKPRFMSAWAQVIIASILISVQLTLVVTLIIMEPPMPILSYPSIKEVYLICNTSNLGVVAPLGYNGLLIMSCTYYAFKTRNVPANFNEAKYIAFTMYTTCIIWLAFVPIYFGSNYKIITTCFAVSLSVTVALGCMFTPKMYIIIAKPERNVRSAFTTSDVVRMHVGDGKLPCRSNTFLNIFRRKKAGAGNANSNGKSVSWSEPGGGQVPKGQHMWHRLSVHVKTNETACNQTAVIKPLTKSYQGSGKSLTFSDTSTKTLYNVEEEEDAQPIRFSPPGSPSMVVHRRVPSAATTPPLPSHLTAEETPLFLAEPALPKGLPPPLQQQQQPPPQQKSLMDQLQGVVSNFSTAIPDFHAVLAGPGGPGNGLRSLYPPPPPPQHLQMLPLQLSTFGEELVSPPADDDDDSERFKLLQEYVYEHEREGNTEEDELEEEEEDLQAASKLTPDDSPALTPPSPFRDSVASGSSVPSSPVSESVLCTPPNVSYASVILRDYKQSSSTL
SMILES,mGlu1 pEC50 (±SEM) (hmGlu1),other results
Cc1[nH]ccc1C(=O)Nc1ccc(N2C(=O)c3ccccc3C2=O)c(Cl)c1 [10b],>5,–
Cc1ccsc1C(=O)Nc1ccc(N2C(=O)c3ccccc3C2=O)c(Cl)c1 [10d],5.72±0.27,EC50 (hmGlu1): 1.5 to 1.8 µM
Cc1ncoc1C(=O)Nc1ccc(N2C(=O)c3ccccc3C2=O)c(Cl)c1 [10f],>5,–
Cc1ocnc1C(=O)Nc1ccc(N2C(=O)c3ccccc3C2=O)c(Cl)c1 [10g],5.83±0.02,–
Cc1ncsc1C(=O)Nc1ccc(N2C(=O)c3ccccc3C2=O)c(Cl)c1 [10h],>5,–
Cc1scnc1C(=O)Nc1ccc(N2C(=O)c3ccccc3C2=O)c(Cl)c1 [10i],–,potency increase relative to the unsubstituted thiazole (hmGlu1; effect of a single methyl group): ~200 fold
Cc1cn[nH]c1C(=O)Nc1ccc(N2C(=O)c3ccccc3C2=O)c(Cl)c1 [10k],5.91±0.21,–
CN1CCC[C@@H]1C(=O)Nc1ccc(N2C(=O)c3ccccc3C2=O)c(Cl)c1 [10l],>5,hmGlu1 EC50 (hmGlu1): inactive
CN1CCC[C@H]1C(=O)Nc1ccc(N2C(=O)c3ccccc3C2=O)c(Cl)c1 [10m],>5,hmGlu1 EC50 (hmGlu1): inactive
Cc1ccc2c(c1)C(=O)N(c1ccc(NC(=O)c3ncoc3C)cc1Cl)C2=O [11a],7.38±0.11,–
Cc1cn[nH]c1C(=O)Nc1ccc(N2C(=O)c3cccc(F)c3C2=O)c(Cl)c1 [11aa],–,Fold versus mGlu4 (hmGlu4): >16 fold
Cc1ocnc1C(=O)Nc1ccc(N2C(=O)c3ccc(Cl)cc3C2=O)c(Cl)c1 [11c],7.26±0.13,–
Cc1cccc2c1C(=O)N(c1ccc(NC(=O)c3ncsc3C)cc1Cl)C2=O [11i],6.64±0.14,–
Cc1scnc1C(=O)Nc1ccc(N2C(=O)c3ccc(Cl)cc3C2=O)c(Cl)c1 [11j],7.30±0.15,–
Cc1scnc1C(=O)Nc1ccc(N2C(=O)c3cccc(Cl)c3C2=O)c(Cl)c1 [11k],5.86±0.28,Fold versus mGlu4 (hmGlu4): >7.3 fold
Cc1scnc1C(=O)Nc1ccc(N2C(=O)c3cccnc3C2=O)c(Cl)c1 [11n],–,Fold versus mGlu4 (hmGlu4): >52 fold
Cc1ccc2c(c1)C(=O)N(c1ccc(NC(=O)c3nccn3C)cc1Cl)C2=O [11o],6.60±0.20,–
Cc1cccc2c1C(=O)N(c1ccc(NC(=O)c3nccn3C)cc1Cl)C2=O [11p],>5,–
Cn1ccnc1C(=O)Nc1ccc(N2C(=O)c3ccc(Cl)cc3C2=O)c(Cl)c1 [11q],6.58±0.13,–
Cn1ccnc1C(=O)Nc1ccc(N2C(=O)c3cccc(Cl)c3C2=O)c(Cl)c1 [11r],>5,–
Cn1ccnc1C(=O)Nc1ccc(N2C(=O)c3cccc(F)c3C2=O)c(Cl)c1 [11t],>5,–
Cn1ccnc1C(=O)Nc1ccc(N2C(=O)c3cccnc3C2=O)c(Cl)c1 [11u],>5,–
Cc1ccc2c(c1)C(=O)N(c1ccc(NC(=O)c3[nH]ncc3C)cc1Cl)C2=O [11v],6.25±0.16,–
Cc1cn[nH]c1C(=O)Nc1ccc(N2C(=O)c3cccc(C)c3C2=O)c(Cl)c1 [11w],5.36±0.22,Fold versus mGlu4 (hmGlu4): >2 fold
Cc1cn[nH]c1C(=O)Nc1ccc(N2C(=O)c3cccc(Cl)c3C2=O)c(Cl)c1 [11y],>5,–
Cc1ccc2c(c1)C(=O)N(c1ccc(NC(=O)c3occc3C)c(F)c1)C2=O [13a],–,in vivo clearance lower than the in vitro predicted value (Rat iv PK): 8 times
Cc1ccoc1C(=O)Nc1ccc(N2C(=O)c3cccc(C)c3C2=O)cc1F [13b],–,in vivo clearance lower than the in vitro predicted value (Rat iv PK): 4 times
Cc1ccoc1C(=O)Nc1ccc(N2C(=O)c3ccc(Cl)cc3C2=O)cc1F [13c],8.27±0.02,–
Cc1ccoc1C(=O)Nc1ccc(N2C(=O)c3ccc(F)cc3C2=O)cc1F [13d],7.71±0.06,–
Cc1ccoc1C(=O)Nc1ccc(N2C(=O)c3cccc(F)c3C2=O)cc1F [13e],7.65±0.07,–
